The values below come from US7375232B2, “Ortho-heterocyclic substituted aryl amides for controlling invertebrate pests” (E.I. du Pont de Nemours and Company, priority 2001, dated 2008).

`Cc1cc(Cl)cc(-n2cccn2)c1NC(=O)c1cc(C(F)(F)F)nn1-c1ccccc1Cl` [Compound 16] yielded a melting point of 87 to 89 °C.
